13 compounds from ChEMBL document CHEMBL1147986, “Minimum structure requirement of immunomodulatory glycolipids for predominant Th2 cytokine induction and the discovery of non-linear phytosphingosine analogs” (2007) can be followed below.

Experiment [1] is described as follows: Induction of IL4 secretion in C57BL/6 mouse spleen cells at 100 ng/ml after 72 hrs relative to OCH. The experiment is classed as functional.
Experiment [2] in a line: Induction of IFN gamma secretion in C57BL/6 mouse spleen cells at 100 ng/ml after 72 hrs relative to OCH. The experiment is classed as functional.

`CCCCCCCCCCCCCCCCCCCCCCCC(=O)N[C@@H](CO[C@H]1O[C@H](CO)[C@H](O)[C@H](O)[C@H]1O)[C@H](O)[C@H](O)CCCCC`: the Activity in experiment [1] and in experiment [2] was 100% in each case.

As for `CCCCCCCCCCCCCCCCCCCCCCCC(=O)N[C@@H](CO[C@H]1O[C@H](CO)[C@H](O)[C@H](O)[C@H]1O)[C@H](O)[C@H](O)CC`, the Activity in experiment [1] was found to be 102%; in experiment [2] it was 81%.

As for `CCCCCCCCCCCCCCCCCCCCCCCC(=O)N[C@@H](CO[C@H]1O[C@H](CO)[C@H](O)[C@H](O)[C@H]1O)[C@H](O)[C@H](O)CCC`, the Activity came out at 105% in experiment [1] and 96% in experiment [2].

With `CCCCCCCCCCCCCCCCCCCCCCCCCCCC(=O)N[C@@H](CO[C@H]1O[C@H](CO)[C@H](O)[C@H](O)[C@H]1O)[C@H](O)[C@H](O)CCCCC`, the results for the Activity in experiment [1] and in experiment [2] were 178% and 761%, respectively.

Turning to `CCCCCCCCCCCCCCCCCCCCCCCC(=O)N[C@@H](CO[C@H]1O[C@H](CCl)[C@H](O)[C@H](O)[C@H]1O)[C@H](O)[C@H](O)CC1CCCC1`, the results for the Activity in experiment [1] and in experiment [2] were 98% and 74%, respectively.

As for `CCCCCCCCCCCCCCCCCCCCCCCC(=O)N[C@@H](CO[C@H]1O[C@H](CCl)[C@H](O)[C@H](O)[C@H]1O)[C@H](O)[C@H](O)Cc1ccccc1`, the results for the Activity in experiment [1] and in experiment [2] were 211% and 284%, respectively.

As to `CCCCCCCCCCCCCCCCCCCC(=O)N[C@@H](CO[C@H]1O[C@H](CO)[C@H](O)[C@H](O)[C@H]1O)[C@H](O)[C@H](O)CCCCC`, the figures for the Activity in experiment [1] and in experiment [2] were 6% and 9%, respectively.

In the case of `CCCCCCCCCCCCCCCCCCCCCCCC(=O)N[C@@H](CO[C@H]1O[C@H](CO)[C@H](O)[C@H](O)[C@H]1O)[C@H](O)[C@H](O)CCCC`, the Activity in experiment [1] is reported as 115%; in experiment [2], 112%.

As for `CCCCCCCCCCCCCCCCCCCCCCCCCC(=O)N[C@@H](CO[C@H]1O[C@H](CO)[C@H](O)[C@H](O)[C@H]1O)[C@H](O)[C@H](O)CCCCC`, the Activity is 129% in experiment [1] and 504% in experiment [2].

As for `CCCCCCCCCCCCCCCCCCCCCCC(=O)N[C@@H](CO[C@H]1O[C@H](CO)[C@H](O)[C@H](O)[C@H]1O)[C@H](O)[C@H](O)CCCCC`, the Activity in experiment [1] was 103%; in experiment [2], 93%.

As for `CCCCCCCCCCCCCCCCCCCCCCCCC(=O)N[C@@H](CO[C@H]1O[C@H](CO)[C@H](O)[C@H](O)[C@H]1O)[C@H](O)[C@@H](O)CCCCC`, the Activity is 154% in experiment [1] and 103% in experiment [2].

For the compound `CCCCCCCCCCCCCCCCCCCCCC(=O)N[C@@H](CO[C@H]1O[C@H](CO)[C@H](O)[C@H](O)[C@H]1O)[C@H](O)[C@H](O)CCCCC`, the Activity in experiment [1] came to 51%; in experiment [2], 46%.

Consider `CCCCCCCCCCCCCCCCCCCCCCCCCC(=O)N[C@@H](CO[C@H]1O[C@H](CO)[C@H](O)[C@H](O)[C@H]1O)[C@H](O)[C@H](O)CCCCCCCCCCCCCC` [RGI-7000], for which the Activity in experiment [1] was determined as 128%; in experiment [2], 569%.
